Reference: the NIST ThermoML archive (doi:10.1021/je401036f)
Where “and” joins values, the source holds several entries; their conditions need not be identical. Equal entries are not always repeated. ± gives the expanded uncertainty stated by the source.

Key:
[1] = refractive index (Na D-line) (dimensionless); details: 101.33 kPa, Liquid, Standard Abbe refractometry
[2] = 101 kPa, Liquid; for viscosity: Concentric cylinders viscometry; for mass density: Vibrating tube method
[3] = refractive index (Na D-line) (dimensionless); xn = mol fraction of the nth substance listed; details: 101 kPa, Liquid, Standard Abbe refractometry, x2 = 0
[4] = xn = mol fraction of the nth substance listed; details: 101 kPa, Liquid, x2 = 0; for viscosity: Concentric cylinders viscometry; for mass density: Vibrating tube method

CCCCO [butan-1-ol]
Details | mass density, [2] [kg/m3] | refractive index, [1] | viscosity, [2] [mPa·s]
288.15 K | 813.353 ± 0.23 | 1.4013 ± 0.0004 | 3.367 ± 0.1
293.15 K | 809.564 ± 0.23 | 1.3992 ± 0.0004 | 2.914 ± 0.089
298.15 K | 805.752 ± 0.24 | 1.3972 ± 0.0004 | 2.539 ± 0.078
303.15 K | 801.912 ± 0.24 | 1.3951 ± 0.0004 | 2.228 ± 0.068
308.15 K | 798.039 ± 0.24 | 1.393 ± 0.0004 | 1.962 ± 0.06
313.15 K | 794.13 ± 0.24 | 1.391 ± 0.0004 | 1.739 ± 0.054
318.15 K | 790.18 ± 0.24 | 1.3888 ± 0.0004 | 1.547 ± 0.048
323.15 K | 786.179 ± 0.24 | 1.3867 ± 0.0004 | 1.382 ± 0.043
328.15 K | 782.125 ± 0.24 | 1.3846 ± 0.0004 | 1.239 ± 0.038
333.15 K | 778.012 ± 0.24 | 1.3824 ± 0.0004 | 1.138 ± 0.035

CCC(C)O (stereo not given) [butan-2-ol]
Details | mass density, [2] [kg/m3] | refractive index, [1] | viscosity, [2] [mPa·s]
288.15 K | 810.524 ± 0.23 | 1.3995 ± 0.0004 | 4.59 ± 0.14
293.15 K | 806.487 ± 0.24 | 1.3974 ± 0.0004 | 3.738 ± 0.12
298.15 K | 802.373 ± 0.24 | 1.3952 ± 0.0004 | 3.074 ± 0.094
303.15 K | 798.174 ± 0.24 | 1.393 ± 0.0004 | 2.552 ± 0.078
308.15 K | 793.881 ± 0.24 | 1.3907 ± 0.0004 | 2.144 ± 0.066
313.15 K | 789.487 ± 0.24 | 1.3883 ± 0.0004 | 1.818 ± 0.056
318.15 K | 784.988 ± 0.24 | 1.3859 ± 0.0004 | 1.558 ± 0.048
323.15 K | 780.38 ± 0.24 | 1.3835 ± 0.0004 | 1.348 ± 0.042
328.15 K | 775.656 ± 0.24 | 1.381 ± 0.0004 | 1.179 ± 0.037
333.15 K | 770.82 ± 0.24 | 1.3784 ± 0.0004 | 1.054 ± 0.033

CC(O)CN (stereo not given) [1-amino-2-propanol]
Details | mass density, [2] [kg/m3] | refractive index, [1] | viscosity, [2]
288.15 K | 964.544 ± 0.8 | 1.45 ± 0.0005 | 43.7 ± 1.4 mPa·s
293.15 K | 960.598 ± 0.79 | 1.448 ± 0.0005 | 31.68 ± 1 mPa·s
298.15 K | 956.618 ± 0.79 | 1.446 ± 0.0005 | 23.54 ± 0.75 mPa·s
303.15 K | 952.612 ± 0.78 | 1.444 ± 0.0005 | 17.89 ± 0.57 mPa·s and 17.9 ± 0.57 mPa·s
308.15 K | 948.577 ± 0.78 | 1.4419 ± 0.0005 | 13.88 ± 0.44 mPa·s
313.15 K | 944.515 ± 0.77 | 1.4399 ± 0.0005 | 10.96 ± 0.35 mPa·s
318.15 K | 940.423 ± 0.77 | 1.4378 ± 0.0005 | 8.798 ± 0.28 mPa·s
323.15 K | 936.293 ± 0.76 | 1.4358 ± 0.0005 | 7.166 ± 0.23 mPa·s
328.15 K | 932.13 ± 0.76 | 1.4337 ± 0.0005 | 5.915 ± 0.19 mPa·s
333.15 K | 927.93 ± 0.75 | 1.4315 ± 0.0005 | 4.986 ± 0.16 mPa·s

CCC(C)O (stereo not given) [butan-2-ol] + CC(O)CN
Details | mass density, [4] [kg/m3] | refractive index, [3] | viscosity, [4] [mPa·s]
288.15 K | 810.524 ± 0.23 | 1.3995 ± 0.0004 | 4.59 ± 0.14
293.15 K | 806.487 ± 0.24 | 1.3974 ± 0.0004 | 3.738 ± 0.12
298.15 K | 802.373 ± 0.24 | 1.3952 ± 0.0004 | 3.074 ± 0.094
303.15 K | 798.174 ± 0.24 | 1.393 ± 0.0004 | 2.552 ± 0.078
308.15 K | 793.881 ± 0.24 | 1.3907 ± 0.0004 | 2.144 ± 0.066
313.15 K | 789.487 ± 0.24 | 1.3883 ± 0.0004 | 1.818 ± 0.056
318.15 K | 784.988 ± 0.24 | 1.3859 ± 0.0004 | 1.558 ± 0.048
323.15 K | 780.38 ± 0.24 | 1.3835 ± 0.0004 | 1.348 ± 0.042
328.15 K | 775.656 ± 0.24 | 1.381 ± 0.0004 | 1.179 ± 0.037
333.15 K | 770.82 ± 0.24 | 1.3784 ± 0.0004 | 1.054 ± 0.033

CCCCO [butan-1-ol] + CC(O)CN
Details | mass density, [4] [kg/m3] | refractive index, [3] | viscosity, [4] [mPa·s]
288.15 K | 813.353 ± 0.23 | 1.4013 ± 0.0004 | 3.367 ± 0.1
293.15 K | 809.564 ± 0.23 | 1.3992 ± 0.0004 | 2.914 ± 0.089
298.15 K | 805.752 ± 0.24 | 1.3972 ± 0.0004 | 2.539 ± 0.078
303.15 K | 801.912 ± 0.24 | 1.3951 ± 0.0004 | 2.228 ± 0.068
308.15 K | 798.039 ± 0.24 | 1.393 ± 0.0004 | 1.962 ± 0.06
313.15 K | 794.13 ± 0.24 | 1.391 ± 0.0004 | 1.739 ± 0.054
318.15 K | 790.18 ± 0.24 | 1.3888 ± 0.0004 | 1.547 ± 0.048
323.15 K | 786.179 ± 0.24 | 1.3867 ± 0.0004 | 1.382 ± 0.043
328.15 K | 782.125 ± 0.24 | 1.3846 ± 0.0004 | 1.239 ± 0.038
333.15 K | 778.012 ± 0.24 | 1.3824 ± 0.0004 | 1.138 ± 0.035
